Measurements from US4147787A, “4,5,6,7-Tetrahydro-thieno[2,3-c]-and [3,2-c]-pyridines, and therapeutic compositions containing the same” (Parcor, priority 1977, dated 1979).

Key:
[1] = tested on: A.D.P. induced blood-platelet aggregation; experiment: A.D.P. induced blood-platelet aggregation; format: in vivo, Wistar rats; details: Rattus norvegicus, po; 100 mg/kg orally, rats, 3 hours after treatment, 10 μM A.D.P. solution; read-out: Percent inhibition of blood-platelet aggregation, A.D.P.
Description: (§1) A blood sample is taken from the jugular vein of Wistar rats. From this citrated blood and after centifugation, a plasma is reconstituted which contains 600,000 ± 20,000 blood-platelets per ml, which plasma is then used in all aggregation determinations.
(§2) 0.4 ml plasma is placed in a siliconized tube provided with a magnet bar, also siliconized. The tube is introduced into an aggregometer connected to an apparatus which records optical density variations. When light transmission has attained a stable value, 0.5 ml of a solution containing 10 μM A.D.P. (adenosinediphosphate) is added to the tube.
(§3) Blood-platelet aggregation induces an increase of light transmission, followed by a decrease subsequent to the deaggregation phase.
(§4) Different groups of 20 rats each are used, each group being orally administered 100 mg/kg of a test derivative.

[2] = Acute toxicity (LD50, method according to Miller and Tainter); details: mouse, in vivo, mice, intravenous, read-out: LD50 /24h/kg body weight
[3] = tested on: Collagen-induced blood-platelet aggregation; experiment: Collagen-induced blood-platelet aggregation; format: in vivo, Wistar rats; details: Rattus norvegicus, po; 100 mg/kg orally, rats, 3 hours after treatment; read-out: Percent inhibition of blood-platelet aggregation, Collagen
Description: as §1, §2, §3
The A.D.P. solution is substituted with a collagen (bovine tendon extract) solution.
as §4

[4] = tested on: rat globules (red corpuscles); experiment: In vitro anti-sludge activity, preventive treatment (protamine sulfate); format: cell-based
Description: (§5) Said activity was investigated in vitro and in vivo in rats.
(§6) Thrice washed rat globules are diluted to 1/250 in physiological saline. In each of 5 tubes are placed 0.6 ml of this suspension and 0.2 ml physiological saline. To each tube is then added 0-25-50-100 and 200 μg, respectively, of the test derivative contained in 0.2 ml solution. After incubation for one hour at 37° C., 0.2 ml of a solution containing 125 μg/ml protamine sulfate are added, after which the tube is then incubated again for 0.5 hour at 37° C. The globules of each tube are then examined with a Mallases cell, and the percent free globules and the percent aggregates formed by 2, 3, 4, 5 etc.. globules is then recorded.

[5] = tested on: rat globules (red corpuscles); experiment: In vitro anti-sludge activity, curative procedure (protamine sulfate); format: cell-based; details: 25 μg
Description: as §5, §6
The experiment was repeated according to a "curvative" procedure; the red corpuscles were first contacted with protamine sulfate and, after incubation for 0.5 hour, 0.2 ml containing 25 μg of test derivative were added thereto, which operation is followed by another incubation for one hour at 37° C. The results obtained are reported in Table III, in which the percent agglomerates as a function of size is indicated.

O=C(O)[C@@H]1NCc2ccsc2[C@@H]1O (relative stereo) [Example 1, 6-Carboxy-7-hydroxy-4,5,6,7-tetrahydro-thieno[3,2-c]pyridine]
inhibition at 100 mg/kg [1]: 63.8%
LD50 at 24 h [2]: 118 mg/kg
inhibition at 100 mg/kg [3]: 95.8%
percent agglomerates, size 2 ([4]; 25 μg): 25%
percent agglomerates, size 3 ([4]; 25 μg): 11%
percent agglomerates, size 4 ([4]; 25 μg): 0%
percent agglomerates, size 5 ([4]; 25 μg): 0%
percent agglomerates, size 6 ([4]; 25 μg): 0%
percent agglomerates, size 7 ([4]; 25 μg): 0%
percent agglomerates, size 8 ([4]; 25 μg): 0%
percent agglomerates, size 9 ([4]; 25 μg): 0%
percent agglomerates, size 10 ([4]; 25 μg): 0%
percent agglomerates, size 11 ([4]; 25 μg): 0%
percent agglomerates, size 12 ([4]; 25 μg): 0%
percent agglomerates, size 13 ([4]; 25 μg): 0%
percent free red corpuscles (size of agglomerates 1) ([4]; 25 μg): 64%
percent agglomerates, size 2 ([4]; 50 μg): 24%
percent agglomerates, size 3 ([4]; 50 μg): 5%
percent agglomerates, size 4 ([4]; 50 μg): 2%
percent agglomerates, size 5 ([4]; 50 μg): 0%
percent agglomerates, size 6 ([4]; 50 μg): 0%
percent agglomerates, size 7 ([4]; 50 μg): 0%
percent agglomerates, size 8 ([4]; 50 μg): 0%
percent agglomerates, size 9 ([4]; 50 μg): 0%
percent agglomerates, size 10 ([4]; 50 μg): 0%
percent agglomerates, size 11 ([4]; 50 μg): 0%
percent agglomerates, size 12 ([4]; 50 μg): 0%
percent agglomerates, size 13 ([4]; 50 μg): 0%
percent free red corpuscles (size of agglomerates 1) ([4]; 50 μg): 69%
percent agglomerates, size 2 ([4]; 100 μg): 7%
percent agglomerates, size 3 ([4]; 100 μg): 4%
percent agglomerates, size 4 ([4]; 100 μg): 3%
percent agglomerates, size 5 ([4]; 100 μg): 0%
percent agglomerates, size 6 ([4]; 100 μg): 0%
percent agglomerates, size 7 ([4]; 100 μg): 0%
percent agglomerates, size 8 ([4]; 100 μg): 0%
percent agglomerates, size 9 ([4]; 100 μg): 0%
percent agglomerates, size 10 ([4]; 100 μg): 0%
percent agglomerates, size 11 ([4]; 100 μg): 0%
percent agglomerates, size 12 ([4]; 100 μg): 0%
percent agglomerates, size 13 ([4]; 100 μg): 0%
percent free red corpuscles (size of agglomerates 1) ([4]; 100 μg): 86%
percent agglomerates, size 2 ([4]; 200 μg): 9%
percent agglomerates, size 3 ([4]; 200 μg): 2%
percent agglomerates, size 4 ([4]; 200 μg): 0%
percent agglomerates, size 5 ([4]; 200 μg): 0%
percent agglomerates, size 6 ([4]; 200 μg): 0%
percent agglomerates, size 7 ([4]; 200 μg): 0%
percent agglomerates, size 8 ([4]; 200 μg): 0%
percent agglomerates, size 9 ([4]; 200 μg): 0%
percent agglomerates, size 10 ([4]; 200 μg): 0%
percent agglomerates, size 11 ([4]; 200 μg): 0%
percent agglomerates, size 12 ([4]; 200 μg): 0%
percent agglomerates, size 13 ([4]; 200 μg): 0%
percent free red corpuscles (size of agglomerates 1) ([4]; 200 μg): 89%

O=C(O)C1Cc2sccc2CN1 (stereo not drawn) [Example 2, 6-Carboxy-4,5,6,7-tetrahydro-thieno[3,2-c]pyridine]
LD50 at 24 h [2]: 235 mg/kg

O=C(OCc1ccccc1Cl)C1Cc2sccc2CN1Cc1ccccc1Cl (stereo not drawn) [Example 13, 5-o-Chlorobenzyl-6-o-chlorobenzyloxycarbonyl-4,5,6,7-tetrahydro-thieno[3,2-c]pyridine]
inhibition at 100 mg/kg [1]: 64.4%
inhibition at 100 mg/kg [3]: 96.1%
percent agglomerates, size 2 ([4]; 25 μg): 26%
percent agglomerates, size 3 ([4]; 25 μg): 9%
percent agglomerates, size 4 ([4]; 25 μg): 0%
percent agglomerates, size 5 ([4]; 25 μg): 0%
percent agglomerates, size 6 ([4]; 25 μg): 0%
percent agglomerates, size 7 ([4]; 25 μg): 0%
percent agglomerates, size 8 ([4]; 25 μg): 0%
percent agglomerates, size 9 ([4]; 25 μg): 0%
percent agglomerates, size 10 ([4]; 25 μg): 0%
percent agglomerates, size 11 ([4]; 25 μg): 0%
percent agglomerates, size 12 ([4]; 25 μg): 0%
percent agglomerates, size 13 ([4]; 25 μg): 0%
percent free red corpuscles (size of agglomerates 1) ([4]; 25 μg): 65%
percent agglomerates, size 2 ([4]; 50 μg): 23%
percent agglomerates, size 3 ([4]; 50 μg): 5%
percent agglomerates, size 4 ([4]; 50 μg): 4%
percent agglomerates, size 5 ([4]; 50 μg): 0%
percent agglomerates, size 6 ([4]; 50 μg): 0%
percent agglomerates, size 7 ([4]; 50 μg): 0%
percent agglomerates, size 8 ([4]; 50 μg): 0%
percent agglomerates, size 9 ([4]; 50 μg): 0%
percent agglomerates, size 10 ([4]; 50 μg): 0%
percent agglomerates, size 11 ([4]; 50 μg): 0%
percent agglomerates, size 12 ([4]; 50 μg): 0%
percent agglomerates, size 13 ([4]; 50 μg): 0%
percent free red corpuscles (size of agglomerates 1) ([4]; 50 μg): 68%
percent agglomerates, size 2 ([4]; 100 μg): 8%
percent agglomerates, size 3 ([4]; 100 μg): 3%
percent agglomerates, size 4 ([4]; 100 μg): 2%
percent agglomerates, size 5 ([4]; 100 μg): 0%
percent agglomerates, size 6 ([4]; 100 μg): 0%
percent agglomerates, size 7 ([4]; 100 μg): 0%
percent agglomerates, size 8 ([4]; 100 μg): 0%
percent agglomerates, size 9 ([4]; 100 μg): 0%
percent agglomerates, size 10 ([4]; 100 μg): 0%
percent agglomerates, size 11 ([4]; 100 μg): 0%
percent agglomerates, size 12 ([4]; 100 μg): 0%
percent agglomerates, size 13 ([4]; 100 μg): 0%
percent free red corpuscles (size of agglomerates 1) ([4]; 100 μg): 87%
percent agglomerates, size 2 ([4]; 200 μg): 9%
percent agglomerates, size 3 ([4]; 200 μg): 1%
percent agglomerates, size 4 ([4]; 200 μg): 0%
percent agglomerates, size 5 ([4]; 200 μg): 0%
percent agglomerates, size 6 ([4]; 200 μg): 0%
percent agglomerates, size 7 ([4]; 200 μg): 0%
percent agglomerates, size 8 ([4]; 200 μg): 0%
percent agglomerates, size 9 ([4]; 200 μg): 0%
percent agglomerates, size 10 ([4]; 200 μg): 0%
percent agglomerates, size 11 ([4]; 200 μg): 0%
percent agglomerates, size 12 ([4]; 200 μg): 0%
percent agglomerates, size 13 ([4]; 200 μg): 0%
percent free red corpuscles (size of agglomerates 1) ([4]; 200 μg): 90%
percent agglomerates, size 2 [5]: 9%
percent agglomerates, size 3 [5]: 5%
percent agglomerates, size 4 [5]: 0%
percent agglomerates, size 5 [5]: 0%
percent agglomerates, size 6 [5]: 0%
percent agglomerates, size 7 [5]: 0%
percent agglomerates, size 8 [5]: 0%
percent agglomerates, size 9 [5]: 0%
percent agglomerates, size 10 [5]: 0%
percent free red corpuscles (size of agglomerates 1) [5]: 86%
